PubChem BioAssay (NCI)
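48-hour exposure; five concentrations; linearly interpolated endpoints. Definition used: TGI = concentration required for complete inhibition of growth.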

Key:
Assay in all cases: NCI tumour cell line growth inhibition, 48 h
HL-60(TB) leukemia = test system: HL-60(TB) leukemia
OVCAR-8 ovarian = test system: OVCAR-8 ovarian
UACC-62 melanoma = test system: UACC-62 melanoma
SF-295 CNS = test system: SF-295 CNS
OVCAR-3 ovarian = test system: OVCAR-3 ovarian
SK-MEL-28 melanoma = test system: SK-MEL-28 melanoma
TK-10 renal = test system: TK-10 renal
HT29 colon = test system: HT29 colon
EKVX NSCLC = test system: EKVX NSCLC
SR leukemia = test system: SR leukemia
NCI-H522 lung = test system: NCI-H522 lung
SNB-75 CNS = test system: SNB-75 CNS
NCI-H23 lung = test system: NCI-H23 lung
K-562 leukemia = test system: K-562 leukemia
SNB-19 CNS = test system: SNB-19 CNS
A549 NSCLC = test system: A549 NSCLC
DU-145 prostate = test system: DU-145 prostate
HCT-116 colon = test system: HCT-116 colon
MALME-3M melanoma = test system: MALME-3M melanoma
MOLT-4 leukemia = test system: MOLT-4 leukemia
NCI/ADR-RES ovarian = test system: NCI/ADR-RES ovarian
SF-539 CNS = test system: SF-539 CNS
SK-OV-3 ovarian = test system: SK-OV-3 ovarian
UACC-257 melanoma = test system: UACC-257 melanoma
IGROV1 ovarian = test system: IGROV1 ovarian
COLO 205 colon = test system: COLO 205 colon
HS 578T breast = test system: HS 578T breast
UO-31 renal = test system: UO-31 renal
786-0 renal = test system: 786-0 renal
HCT-15 colon = test system: HCT-15 colon
BT-549 breast = test system: BT-549 breast
OVCAR-4 ovarian = test system: OVCAR-4 ovarian
CAKI-1 renal = test system: CAKI-1 renal
SK-MEL-5 melanoma = test system: SK-MEL-5 melanoma
KM12 colon = test system: KM12 colon
NCI-H460 lung = test system: NCI-H460 lung
SW-620 colon = test system: SW-620 colon
RXF 393 renal = test system: RXF 393 renal
SF-268 CNS = test system: SF-268 CNS
LOX IMVI melanoma = test system: LOX IMVI melanoma
U251 CNS = test system: U251 CNS
T-47D breast = test system: T-47D breast
HOP-92 NSCLC = test system: HOP-92 NSCLC
MCF7 breast = test system: MCF7 breast
ACHN renal = test system: ACHN renal
HOP-62 NSCLC = test system: HOP-62 NSCLC
RPMI-8226 leukemia = test system: RPMI-8226 leukemia
MDA-MB-231 breast = test system: MDA-MB-231 breast
OVCAR-5 ovarian = test system: OVCAR-5 ovarian
MDA-N = test system: MDA-N
SN12C renal = test system: SN12C renal
CCRF-CEM leukemia = test system: CCRF-CEM leukemia
NCI-H226 lung = test system: NCI-H226 lung
MDA-MB-435 = test system: MDA-MB-435
PC-3 prostate = test system: PC-3 prostate
A498 renal = test system: A498 renal
M14 melanoma = test system: M14 melanoma
SK-MEL-2 melanoma = test system: SK-MEL-2 melanoma
DLD-1 colon = test system: DLD-1 colon
DMS 114 small cell lung = test system: DMS 114 small cell lung
XF 498 CNS = test system: XF 498 CNS
M19-MEL melanoma = test system: M19-MEL melanoma
DMS 273 small cell lung = test system: DMS 273 small cell lung
HCC-2998 colon = test system: HCC-2998 colon
LXFL 529 NSCLC = test system: LXFL 529 NSCLC
KM20L2 colon = test system: KM20L2 colon

## CC(=O)Oc1ccc(-c2nnc(-c3ccc(OC(C)=O)cc3)nn2)cc1
HL-60(TB) leukemia
  TGI: 84 µM
OVCAR-8 ovarian
  TGI: > 100 µM
UACC-62 melanoma
  TGI: > 100 µM
SF-295 CNS
  TGI: > 100 µM
OVCAR-3 ovarian
  TGI: > 100 µM
SK-MEL-28 melanoma
  TGI: > 100 µM
TK-10 renal
  TGI: > 100 µM
HT29 colon
  TGI: > 100 µM
EKVX NSCLC
  TGI: > 100 µM
SR leukemia
  TGI: 88.1 µM
NCI-H522 lung
  TGI: > 100 µM
SNB-75 CNS
  TGI: > 100 µM
NCI-H23 lung
  TGI: > 100 µM
K-562 leukemia
  TGI: > 100 µM
SNB-19 CNS
  TGI: > 100 µM
A549 NSCLC
  TGI: > 100 µM
DU-145 prostate
  TGI: > 100 µM
HCT-116 colon
  TGI: > 100 µM
MALME-3M melanoma
  TGI: > 100 µM
MOLT-4 leukemia
  TGI: > 100 µM
NCI/ADR-RES ovarian
  TGI: > 100 µM
SF-539 CNS
  TGI: > 100 µM
SK-OV-3 ovarian
  TGI: > 100 µM
UACC-257 melanoma
  TGI: > 100 µM
IGROV1 ovarian
  TGI: > 100 µM
COLO 205 colon
  TGI: > 100 µM
HS 578T breast
  TGI: > 100 µM
UO-31 renal
  TGI: > 100 µM
786-0 renal
  TGI: > 100 µM
HCT-15 colon
  TGI: > 100 µM
BT-549 breast
  TGI: > 100 µM
OVCAR-4 ovarian
  TGI: > 100 µM
CAKI-1 renal
  TGI: > 100 µM
SK-MEL-5 melanoma
  TGI: > 100 µM
KM12 colon
  TGI: > 100 µM
NCI-H460 lung
  TGI: > 100 µM
SW-620 colon
  TGI: > 100 µM
RXF 393 renal
  TGI: > 100 µM
SF-268 CNS
  TGI: > 100 µM
LOX IMVI melanoma
  TGI: > 100 µM
U251 CNS
  TGI: > 100 µM
T-47D breast
  TGI: > 100 µM
HOP-92 NSCLC
  TGI: > 100 µM
MCF7 breast
  TGI: > 100 µM
ACHN renal
  TGI: > 100 µM
HOP-62 NSCLC
  TGI: > 100 µM
RPMI-8226 leukemia
  TGI: > 100 µM
MDA-MB-231 breast
  TGI: > 100 µM
OVCAR-5 ovarian
  TGI: > 100 µM
MDA-N
  TGI: > 100 µM
SN12C renal
  TGI: > 100 µM
CCRF-CEM leukemia
  TGI: > 100 µM
NCI-H226 lung
  TGI: > 100 µM
MDA-MB-435
  TGI: > 100 µM
PC-3 prostate
  TGI: > 100 µM
A498 renal
  TGI: > 100 µM
M14 melanoma
  TGI: > 100 µM
SK-MEL-2 melanoma
  TGI: > 100 µM

## CC(C)CCCC(C)C1CCC2C3CC([N+](=O)[O-])=C4CC(O)CCC4(C)C3CCC12C (stereo unspecified)
HL-60(TB) leukemia
  TGI: 60.6 µM
OVCAR-8 ovarian
  TGI: 47.4 µM
DLD-1 colon
  TGI: 35.9 µM
UACC-62 melanoma
  TGI: 40.3 µM
SF-295 CNS
  TGI: 30 µM
OVCAR-3 ovarian
  TGI: 49.4 µM
SK-MEL-28 melanoma
  TGI: 35.2 µM
TK-10 renal
  TGI: 39.6 µM
DMS 114 small cell lung
  TGI: 45.7 µM
HT29 colon
  TGI: 55.5 µM
EKVX NSCLC
  TGI: 57.2 µM
SR leukemia
  TGI: 34.1 µM
NCI-H522 lung
  TGI: 33.6 µM
SNB-75 CNS
  TGI: 41.5 µM
NCI-H23 lung
  TGI: 48.6 µM
XF 498 CNS
  TGI: 37.1 µM
K-562 leukemia
  TGI: 36.8 µM
M19-MEL melanoma
  TGI: 73.3 µM
A549 NSCLC
  TGI: 47.1 µM
HCT-116 colon
  TGI: 28.9 µM
MALME-3M melanoma
  TGI: 39.2 µM
MOLT-4 leukemia
  TGI: 88.2 µM
DMS 273 small cell lung
  TGI: 27.2 µM
SF-539 CNS
  TGI: 28.9 µM
HCC-2998 colon
  TGI: 37.2 µM
UACC-257 melanoma
  TGI: 37.5 µM
IGROV1 ovarian
  TGI: 50.1 µM
COLO 205 colon
  TGI: 45.7 µM
LXFL 529 NSCLC
  TGI: 32.9 µM
KM20L2 colon
  TGI: 34.7 µM
786-0 renal
  TGI: 33 µM
HCT-15 colon
  TGI: 33.6 µM
OVCAR-4 ovarian
  TGI: 43 µM
CAKI-1 renal
  TGI: 66 µM
KM12 colon
  TGI: 37 µM
SW-620 colon
  TGI: 59.1 µM
RXF 393 renal
  TGI: 50.9 µM
SF-268 CNS
  TGI: 62.9 µM
LOX IMVI melanoma
  TGI: 36.6 µM
U251 CNS
  TGI: 30.4 µM
HOP-92 NSCLC
  TGI: 46.6 µM
ACHN renal
  TGI: > 100 µM
HOP-62 NSCLC
  TGI: 42.3 µM
RPMI-8226 leukemia
  TGI: 46.9 µM
SN12C renal
  TGI: 32.1 µM
CCRF-CEM leukemia
  TGI: 42.9 µM
A498 renal
  TGI: 40.6 µM
M14 melanoma
  TGI: 28.8 µM
SK-MEL-2 melanoma
  TGI: 29 µM

## Nc1ccc2c(=S)c3ccccc3[nH]c2c1
HL-60(TB) leukemia
  TGI: > 100 µM
OVCAR-8 ovarian
  TGI: > 100 µM
UACC-62 melanoma
  TGI: > 100 µM
SF-295 CNS
  TGI: > 100 µM
OVCAR-3 ovarian
  TGI: > 100 µM
SK-MEL-28 melanoma
  TGI: > 100 µM
TK-10 renal
  TGI: > 100 µM
HT29 colon
  TGI: > 100 µM
EKVX NSCLC
  TGI: > 100 µM
SR leukemia
  TGI: > 100 µM
NCI-H522 lung
  TGI: 79.2 µM
SNB-75 CNS
  TGI: > 100 µM
NCI-H23 lung
  TGI: > 100 µM
K-562 leukemia
  TGI: > 100 µM
SNB-19 CNS
  TGI: > 100 µM
A549 NSCLC
  TGI: > 100 µM
DU-145 prostate
  TGI: > 100 µM
HCT-116 colon
  TGI: > 100 µM
MALME-3M melanoma
  TGI: > 100 µM
MOLT-4 leukemia
  TGI: > 84.4 µM
NCI/ADR-RES ovarian
  TGI: > 100 µM
SF-539 CNS
  TGI: > 100 µM
SK-OV-3 ovarian
  TGI: 98.5 µM
HCC-2998 colon
  TGI: > 100 µM
UACC-257 melanoma
  TGI: > 100 µM
IGROV1 ovarian
  TGI: > 100 µM
COLO 205 colon
  TGI: > 100 µM
HS 578T breast
  TGI: > 100 µM
UO-31 renal
  TGI: > 100 µM
786-0 renal
  TGI: > 100 µM
HCT-15 colon
  TGI: > 100 µM
BT-549 breast
  TGI: > 100 µM
OVCAR-4 ovarian
  TGI: > 100 µM
CAKI-1 renal
  TGI: > 100 µM
SK-MEL-5 melanoma
  TGI: > 100 µM
KM12 colon
  TGI: > 100 µM
NCI-H460 lung
  TGI: > 100 µM
SW-620 colon
  TGI: > 100 µM
RXF 393 renal
  TGI: 98.9 µM
SF-268 CNS
  TGI: > 100 µM
LOX IMVI melanoma
  TGI: > 100 µM
U251 CNS
  TGI: > 100 µM
T-47D breast
  TGI: > 59 µM
HOP-92 NSCLC
  TGI: 98.9 µM
MCF7 breast
  TGI: > 100 µM
ACHN renal
  TGI: > 100 µM
HOP-62 NSCLC
  TGI: > 73 µM
RPMI-8226 leukemia
  TGI: > 100 µM
MDA-MB-231 breast
  TGI: > 100 µM
OVCAR-5 ovarian
  TGI: > 100 µM
MDA-N
  TGI: > 100 µM
SN12C renal
  TGI: > 100 µM
CCRF-CEM leukemia
  TGI: > 95.4 µM
NCI-H226 lung
  TGI: > 100 µM
MDA-MB-435
  TGI: > 100 µM
PC-3 prostate
  TGI: > 100 µM
A498 renal
  TGI: > 100 µM
M14 melanoma
  TGI: > 83.3 µM
SK-MEL-2 melanoma
  TGI: > 100 µM
